Laboratory results published in patent US10464952B2, “Beta-lactamase inhibitors” (priority 2015, dated 2019).

Columns and labels:
[1] = test system: K. pneumoniae expressing the class A carbapenemase KPC-2 and the class B carbapenemase VIM-4; assay: Broth microdilution MIC assay, potentiation of meropenem; type: cell-based; conditions: for MIC (μg/mL) of exemplary compounds in presence of fixed β-lactams, K.P. A-1797 KPC-2 VIM-4: Fixed Mero 4 μg/mL, CAMHB, 16-20 hours at 37° C.
Text: (§1) To determine the ability of test compounds to potentiate the inhibition of the growth of bacterial strains that produce beta-lactamase enzymes, classic cell based broth microdilution MIC assays were employed. Six bacteria strains producing beta-lactamase enzymes were used: E. coli expressing the Class A Extended Spectrum Beta-Lactamase (ESBL) CTX-M-15, E. cloacae expressing the Class C P99, K. pneumoniae expressing the Class A carbapenemase KPC-3, P.aeruginosa expressing the Class B carbapenemase VIM-2, K. pneumoniae expressing the class A carbapenemase KPC-2 and the class B carbapenemase VIM-4, and K. pneumoniae producing the Class D carbapenemase OXA-48. The assay was conducted in Cation Adjusted Mueller Hinton Broth (CAMHB, BD #212322, BD Diagnostic Systems, Sparks, Md.). Bacteria strains were grown for 3-5 hours in CAMHB broth. Test compounds were added to a microtiter plate in 2-fold serial dilutions in CAMHB in a final concentration range of 32 μg/mL to 0.015 μg/mL. An overlay of CAMHB containing a Beta-lactam was added to the compounds at a final static concentration of 4 μg/mL. […] In addition to the titration of test compounds the MICs of a panel of control beta-lactams is also tested to ensure the strains are behaving consistently from test to test. Once the test compound and antibiotics are added the plates can be inoculated according to CLSI broth microdilution method. After inoculation, the plates are incubated for 16-20 hours at 37° C., then the Minimal Inhibitory Concentration (MIC) of the test compound is determined visually.
(§2) Using the methodology described above, examples of the current invention were evaluated for their ability to inhibit the growth of β-lactamase-producing bacteria in the presence of a β-lactam antibiotic.
(§3) Representative results are shown in Table 3 where A represents an MIC of the fixed β-lactam antibiotic in the presence of >32 μg/mL of a β-lactamase inhibitor of exemplary compounds, B represents the MIC in the presence of between 8 and 32 μg/mL of a β-lactamase inhibitor of exemplary compounds, and C represents the MIC in the presence of ≤4 μg/mL of a β-lactamase inhibitor of exemplary compounds. NT=Not Tested.

[2] = test system: P.aeruginosa expressing the Class B carbapenemase VIM-2; assay: as above; type: cell-based; conditions: for MIC (μg/mL) of exemplary compounds in presence of fixed β-lactams, P. aerug. 2775 VIM-2: Fixed Mero 4 μg/mL, CAMHB, 16-20 hours at 37° C.
Text: as §1, §2, §3

SHV-5 = target: T1, SHV-5 (Klebsiella pneumoniae, UniProt P0A3M1); assay: β-lactamase enzyme inhibition assay, SHV-5 (cefotaxime substrate); type: biochemical
T1 construct: made in house; host or cells: E. coli BL21(DE3)
T1 sequence (P0A3M1 22-286): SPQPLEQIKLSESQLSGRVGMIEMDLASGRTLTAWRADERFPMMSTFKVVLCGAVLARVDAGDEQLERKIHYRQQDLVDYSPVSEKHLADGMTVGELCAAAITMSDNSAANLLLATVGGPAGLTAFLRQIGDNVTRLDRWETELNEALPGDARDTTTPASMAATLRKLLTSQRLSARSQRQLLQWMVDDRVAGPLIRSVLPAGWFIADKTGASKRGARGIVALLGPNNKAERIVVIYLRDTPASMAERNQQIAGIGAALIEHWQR
Method: (§4) For SHV-5, KPC-2, p99AmpC and OXA-4813-lactamases, E. coli BL21(DE3) bacterial cells carrying expression plasmids (expressed as native untagged proteins) for the individual β-lactamases were grown in 1L of Superbroth (Teknova Inc. Hollister, Calif.) supplemented with 100 μg/ml kanamycin selection and 1×5052 (0.5% glycerol, 0.05% glucose and 0.2% α-lactose) at 35° C. for 18-20 hours. Cells were harvested by centrifugation (4,000 ×g, 4° C., 20 min), re-suspended in 50 ml of 10 mM HEPES pH 7.5 (1/20 of the initial volume). The cells were lysed by sonication (5 pulses of 45 seconds) at 45 Won ice. The lysates were clarified by centrifugation at 10,000 ×g for 40 minutes at 4° C. Samples were diluted 5-fold in 50 mM sodium acetate pH 5.0, stored overnight at 4° C., after which they were centrifuged at 10,000 ×g for 30 minutes to clarify, and filtered through 0.45 μm filters. The samples were loaded onto a 5 ml Capto S sepharose cation exchange column (GE Healthcare) pre-equilibrated with 50 mM sodium acetate pH 5.0. The column was washed with 5 column volumes of 50 mM sodium acetate pH 5.0 to wash out unbound protein and a linear gradient of NaCl (0 to 500 mM) was used to elute the protein (over 16 CV) from the column. Fractions were assayed for β-lactamase activity using Centa (Calbiochem, Gibbstown, N.J.) or Nitrocefin (EMD Millipore chemicals, Darmstadt, Germany) as a reporter β-lactamase substrate for activity in the isolated fractions. Active fractions were pooled, concentrated and further purified by gel filtration chromatography on a Superdex 75 prep grade gel filtration column (GE Healthcare, Piscataway, N.J.) pre -equilibrated in 50 mM Hepes pH 7.5, 150 mM NaCl. Active fractions were pooled, concentrated, and quantitated by BCA protein determination (ThermoScientific, Rockford, Ill.), dialyzed into PBS and frozen at […] in 20% glycerol until use.
(§5) An equal volume of diluted enzyme stock was added, and the plates were incubated at 37° C. for 15 min. Nitrocefin was used as substrate for p99 AmpC, VIM-2 and OXA-48 and dispensed into each well at a final concentration of 100 μM. Absorbance at 486 nm was immediately monitored for 10 min using a Biotek Powerwave XS2 microplate spectrophotometer using the GEN5 software package (Biotek Instruments, Winooski Vt.). In an analogous fashion, imipenem was used as substrate for KPC-2 and Cefotaxime was used for SHV-5, while changes in absorbance upon hydrolysis of the β-lactam ring were monitored at 300 nm and 260 nm respectively in UV-transparent 96-well microtiter assay plates. Maximum rates of hydrolysis were compared to those in control wells (without inhibitors), and percentages of enzyme inhibition were calculated for each concentration of inhibitor. The concentration of inhibitor needed to reduce the initial rate of hydrolysis of substrate by 50% (IC50) was calculated as the residual activity of β-lactamase at 486 nm using GraFit version 7 kinetics software package (Erithacus Software, Surrey, UK).
(§6) Using the methodology described above, examples of the current invention were evaluated for their ability to inhibit β-lactamase enzymes from all four Ambler classifications (A through D). […] NT=Not tested.

p99 AmpC = target: T2, p99 AmpC (Enterobacter cloacae, UniProt P05364); assay: β-lactamase enzyme inhibition assay, p99 AmpC (nitrocefin substrate); type: biochemical
T2 construct: made in house; host or cells: E. coli BL21(DE3)
T2 sequence (P05364 21-381): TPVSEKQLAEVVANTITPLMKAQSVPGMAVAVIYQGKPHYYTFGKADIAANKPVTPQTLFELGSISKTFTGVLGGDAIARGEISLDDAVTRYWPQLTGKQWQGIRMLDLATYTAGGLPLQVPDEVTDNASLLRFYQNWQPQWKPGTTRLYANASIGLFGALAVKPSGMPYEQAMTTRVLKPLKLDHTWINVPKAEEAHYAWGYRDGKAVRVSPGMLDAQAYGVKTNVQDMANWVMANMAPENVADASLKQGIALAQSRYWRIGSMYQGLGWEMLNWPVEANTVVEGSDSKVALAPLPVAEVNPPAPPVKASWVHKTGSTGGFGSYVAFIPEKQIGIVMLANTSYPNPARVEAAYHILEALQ
Method: as §4, §5, §6

[3] = test system: E. coli expressing the Class A Extended Spectrum Beta-Lactamase (ESBL) CTX-M-15; assay: Broth microdilution MIC assay, potentiation of ceftazidime; type: cell-based; conditions: for MIC (μg/mL) of exemplary compounds in presence of fixed β-lactams, E. coli ESBL4 CTX-M-15: Fixed CAZ 4 μg/mL, CAMHB, 16-20 hours at 37° C.
Text: as §1, §2, §3

[4] = test system: E. cloacae expressing the Class C P99; assay: as above; type: cell-based; conditions: for MIC (μg/mL) of exemplary compounds in presence of fixed β-lactams, E. cl. 144200 p99 AmpC: Fixed CAZ 4 μg/mL, CAMHB, 16-20 hours at 37° C.
Text: as §1, §2, §3

[5] = target: T3, VIM-2 metallo β-lactamase (Pseudomonas aeruginosa, UniProt Q9K2N0); assay: β-lactamase enzyme inhibition assay, VIM-2 (nitrocefin substrate); type: biochemical; conditions: 15 min preincubation at 37° C.; nitrocefin 100 μM, 486 nm; read-out: IC50 VIM-2 (Class B)
T3 construct: made in house; host or cells: E. coli BL21(DE3)
Method: For VIM-2 metallo β-lactamase, the procedure was identical with the following exceptions, first the protein was not pH adjusted to pH 5 with 50 mM sodium acetate. Second, the chromatography step was changed to a 5 ml Q sepharose anion exchange column pre-equilibrated with 50 mM Hepes pH 7.5, and elution of the protein was achieved by a linear gradient of NaCl (0-600 mM). Finally, the VIM-2 purification required a second run (3rd step) on the Q sepharose anion exchange column to achieve acceptable purity (>90%).
as §5, §6

OXA-48 = target: T4, OXA-48 (Klebsiella pneumoniae, UniProt Q6XEC0); assay: β-lactamase enzyme inhibition assay, OXA-48 (nitrocefin substrate); type: biochemical
T4 construct: made in house; host or cells: E. coli BL21(DE3)
T4 sequence (Q6XEC0 23-265 limits assumed): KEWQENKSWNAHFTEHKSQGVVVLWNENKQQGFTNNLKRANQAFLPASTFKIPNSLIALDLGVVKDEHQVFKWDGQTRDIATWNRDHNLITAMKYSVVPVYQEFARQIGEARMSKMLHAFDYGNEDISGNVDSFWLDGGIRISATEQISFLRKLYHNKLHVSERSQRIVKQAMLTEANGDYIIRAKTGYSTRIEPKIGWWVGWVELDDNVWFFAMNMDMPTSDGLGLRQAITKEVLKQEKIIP
Method: as §4, §5, §6

[6] = test system: K. pneumoniae expressing the Class A carbapenemase KPC-3; assay: Broth microdilution MIC assay, potentiation of meropenem; type: cell-based; conditions: Fixed Mero 4 μg/mL; CAMHB, 16-20 hours at 37° C.
Text: as §1, §2

[7] = test system: K. pneumoniae producing the Class D carbapenemase OXA-48; assay: as above; type: cell-based; conditions: Fixed Mero 4 μg/mL; CAMHB, 16-20 hours at 37° C.
Text: as §1, §2

KPC-2 = target: T5, KPC-2 (Klebsiella pneumoniae, UniProt Q9F663); assay: β-lactamase enzyme inhibition assay, KPC-2 (imipenem substrate); type: biochemical
T5 construct: made in house; host or cells: E. coli BL21(DE3)
T5 sequence (Q9F663 25-293 limits assumed): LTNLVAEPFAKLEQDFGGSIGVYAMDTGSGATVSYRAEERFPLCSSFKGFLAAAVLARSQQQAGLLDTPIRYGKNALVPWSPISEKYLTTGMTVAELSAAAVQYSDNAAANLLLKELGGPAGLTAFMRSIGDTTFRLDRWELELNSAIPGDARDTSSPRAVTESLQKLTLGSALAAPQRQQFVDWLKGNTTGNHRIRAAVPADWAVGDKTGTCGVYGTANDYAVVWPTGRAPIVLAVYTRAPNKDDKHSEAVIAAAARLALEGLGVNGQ
Method: as §4, §5, §6

| SMILES | MIC alone of partner antibiotic ([1]; antibiotic alone, K. pneumoniae expressing KPC-2 and VIM-4) | MIC alone of partner antibiotic ([2]; antibiotic alone, P. aeruginosa expressing VIM-2) | IC50 (SHV-5) | IC50 (p99 AmpC) | MIC (μg/mL) of exemplary compounds in presence of fixed β-lactams, E. coli ESBL4 CTX-M-15 [3] | MIC (μg/mL) of exemplary compounds in presence of fixed β-lactams, E. cl. 144200 p99 AmpC [4] | IC50 [5] | IC50 (OXA-48) | MIC (μg/mL) of exemplary compounds in presence of fixed β-lactams, K.P. A-1797 KPC-2 VIM-4 [1] | MIC (μg/mL) of exemplary compounds in presence of fixed β-lactams, P. aerug. 2775 VIM-2 [2] | MIC (μg/mL) of exemplary compounds in presence of fixed β-lactams, K. P. 156319 KPC-3 [6] | MIC (μg/mL) of exemplary compounds in presence of fixed β-lactams, K. P. 11978 OXA-48 [7] | IC50 (KPC-2) | MIC alone of partner antibiotic ([3]; antibiotic alone, E. coli expressing Ambler Class A ESBL CTX-M-15) | MIC alone of partner antibiotic ([4]; antibiotic alone, E. cloacae expressing Class C P99) |
| --- | --- | --- | --- | --- | --- | --- | --- | --- | --- | --- | --- | --- | --- | --- | --- |
| C[C@@H](O)[C@H]1C(=O)N2C(C(=O)O)=C(S[C@@H]3CN[C@H](C(=O)N(C)C)C3)[C@H](C)[C@H]12 [Meropenem, reference compound] | 64 µg/mL | 16 µg/mL | – | – | – | – | – | – | – | – | – | – | – | – | – |
| O=C(CCCC(F)(F)F)N[C@H]1Cc2cccc(C(=O)O)c2OB1O [Example 2, (R)-2-hydroxy-3-(5,5,5-trifluoropentanamido)-3,4-dihydro-2H-benzo[e][1,2]oxaborinine-8-carboxylic acid] | – | – | < 100 nM | < 100 nM | C (C represents the MIC in the presence of ≤4 μg/mL of a β-lactamase inhibitor) | C (C represents the MIC in the presence of ≤4 μg/mL of a β-lactamase inhibitor) | 1000 to 10000 nM | 100 to 1000 nM | C (C represents the MIC in the presence of ≤4 μg/mL of a β-lactamase inhibitor) | B (B represents the MIC in the presence of between 8 and 32 μg/mL of a β-lactamase inhibitor) | C (C represents the MIC in the presence of ≤4 μg/mL of a β-lactamase inhibitor) | C (C represents the MIC in the presence of ≤4 μg/mL of a β-lactamase inhibitor) | < 100 nM | – | – |
| CC(C)(O/N=C(\C(=O)N[C@@H]1C(=O)N2C(C(=O)[O-])=C(C[n+]3ccccc3)CS[C@H]12)c1csc(N)n1)C(=O)O [Ceftazidime, reference compound] | – | – | – | – | – | – | – | – | – | – | – | – | – | > 128 µg/mL | 128 µg/mL |
| CCC(F)(F)C(=O)N[C@H]1Cc2cccc(C(=O)O)c2OB1O [Example 1, (R)-3-(2,2-difluorobutanamido)-2-hydroxy-3,4-dihydro-2H-benzo [e] [1,2] oxaborinine-8-carboxylic acid] | – | – | < 100 nM | < 100 nM | C (C represents the MIC in the presence of ≤4 μg/mL of a β-lactamase inhibitor) | C (C represents the MIC in the presence of ≤4 μg/mL of a β-lactamase inhibitor) | 1000 to 10000 nM | 100 to 1000 nM | B (B represents the MIC in the presence of between 8 and 32 μg/mL of a β-lactamase inhibitor) | C (C represents the MIC in the presence of ≤4 μg/mL of a β-lactamase inhibitor) | B (B represents the MIC in the presence of between 8 and 32 μg/mL of a β-lactamase inhibitor) | C (C represents the MIC in the presence of ≤4 μg/mL of a β-lactamase inhibitor) | 100 to 1000 nM | – | – |
| CC(F)(F)CC(=O)N[C@H]1Cc2cccc(C(=O)O)c2OB1O [Example 3, (R)-3-(3,3-difluorobutanamido)-2-hydroxy-3,4-dihydro-2H-benzo [e][1,2]oxaborinine-8-carboxylic acid] | – | – | < 100 nM | < 100 nM | C (C represents the MIC in the presence of ≤4 μg/mL of a β-lactamase inhibitor) | C (C represents the MIC in the presence of ≤4 μg/mL of a β-lactamase inhibitor) | 1000 to 10000 nM | 100 to 1000 nM | C (C represents the MIC in the presence of ≤4 μg/mL of a β-lactamase inhibitor) | C (C represents the MIC in the presence of ≤4 μg/mL of a β-lactamase inhibitor) | C (C represents the MIC in the presence of ≤4 μg/mL of a β-lactamase inhibitor) | C (C represents the MIC in the presence of ≤4 μg/mL of a β-lactamase inhibitor) | 100 to 1000 nM | – | – |
